Values after ≈ are worked out from the molar mass of the structure shown.
Legend:
[1] = tested on: HUVEC (human umbilical vein endothelial cells); assay: cells; type: cell-based; conditions: Homo sapiens, HUVEC; isolated compounds; MTT, 72 h; normal cells
Protocol: (§1) The human cell lines MCF-7 (breast cancer), Ca Ski (cervical cancer), and HT-29 (colon cancer) were cultured as monolayer in RPMI 1640 growth media. HUVEC (human umbilical vein endothelial cells) and PC-3 (prostate cancer) cells were cultured in DMEM. All cells were purchased from the American Tissue Culture Collection (ATCC, USA) except for human umbilical vein endothelial cells (HUVEC) which were obtained from ScienCell Research Laboratories (Carlsbad, CA). All the media were supplemented with 10% v/v foetal bovine serum (FBS), 100 μg/mL penicillin/streptomycin, and 50 μg/mL amphotericin B. The cells were cultured in a 5% CO2 incubator at 37°C.
(§2) Cell viability was investigated using 3-(4, 5-dimethylthiazol-2-yl)-2, 5-diphenyltetrazolium bromide (MTT) assay. Cells were detached from the […] tissue culture flask when it achieved 80% confluency. The detached cells were pellet by centrifugation (1,000 rpm; 5 minutes). Cells (3.0 × 10^4 cells/mL) were seeded onto a 96-well microtiter plate (Nunc). The cells were incubated at 37°C CO2 incubator for 24 h to give adherent cells. The test compounds (1–100 μg/mL) were added onto the 96-well microtiter plate containing adherent cells. The untreated cells were incubated in 10% media containing 0.5% DMSO (without addition of any test compounds/extracts). This mixture was regarded as the negative control whereas doxorubicin as the positive control. The plates were incubated for 72 h at 37°C in a 5% CO2 incubator. After 72 h, the media were removed and 100 μL of fresh medium and 20 μL of MTT (Sigma, filter sterile, 5 mg/mL) were added to each well and further incubated for 4 hours (37°C) after which the media were substituted with 150 μL DMSO. The 96-well microtiter plates were then agitated at room temperature onto an incubator shaker to dissolve the formazan crystals. The absorbance (A) of the content of the plates was measured at 540 nm using a microplate reader. The percentage of inhibition of each test sample was calculated according to the following formula: Percentage of inhibition (%) = (A control − A sample)/A control × 100%. The average of three replicates was then obtained. The IC50 for each extract was extrapolated from the graphs of the percentage inhibition versus concentration of test agents. Cytotoxicity of each test agent is expressed as IC50 value. The IC50 value is the concentration of test agents that cause 50% inhibition or cell death, averaged from the three experiments. The selectivity index (SI) was also calculated as described by using the ratio between IC50 of the extract or compounds on normal cell lines (HUVEC) and IC50 of the tested extract or compounds on cancerous cell lines. Selectivity index (SI) values equal or greater than three were considered to have a high selectivity towards cancerous cells. An SI value denotes the selectivity of the sample to the tested cell lines.

MCF-7 (breast cancer) = assay: cells; type: cell-based; conditions: for IC50: Homo sapiens, MCF7, MTT, 72 h, mean ± SD of three replicates; for IC50 / SI (selectivity index) MCF-7: isolated compounds; for SI (selectivity index) MCF-7: IC50 HUVEC / IC50 MCF-7
Protocol: as §1, §2

PC-3 (prostate cancer) = assay: MTT cytotoxicity assay, PC-3; type: cell-based; conditions: for IC50: Homo sapiens, MTT, 72 h, mean ± SD of three replicates; for IC50 / SI (selectivity index) PC-3: isolated compounds; for antiproliferative/cytotoxic activity against PC-3 (in words): MTT assay; for SI (selectivity index) PC-3: IC50 HUVEC / IC50 PC-3
Protocol: as §1, §2

HT-29 (colon cancer) = assay: MTT cytotoxicity assay, HT-29; type: cell-based; conditions: for IC50: Homo sapiens, HT-29, MTT, 72 h, mean ± SD of three replicates; for IC50 / SI (selectivity index) HT-29: isolated compounds; for antiproliferative/cytotoxic activity against HT-29 (in words): MTT assay; for SI (selectivity index) HT-29: IC50 HUVEC / IC50 HT-29
Protocol: as §1, §2

Ca Ski = tested on: Ca Ski; set-up: method as in PMID 21629182; conditions: zerumin A isolated from Curcuma mangga; cited from earlier work
MCF-7 = tested on: MCF-7; set-up: method as in PMID 21629182; conditions: zerumin A isolated from Curcuma mangga; cited from earlier work
Ca Ski (cervical cancer) = assay: cells; type: cell-based; conditions: for IC50: Homo sapiens, Ca-Ski, MTT, 72 h, mean ± SD of three replicates; for IC50 / SI (selectivity index) Ca Ski: isolated compounds; for SI (selectivity index) Ca Ski: IC50 HUVEC / IC50 Ca Ski
Protocol: as §1, §2

SMILES	IC50 [1] [µg/mL]	IC50 (MCF-7 (breast cancer)) [µg/mL]	SI (selectivity index) MCF-7 (MCF-7 (breast cancer))	IC50 (PC-3 (prostate cancer)) [µg/mL]	antiproliferative/cytotoxic activity against PC-3 (in words) (PC-3 (prostate cancer))	SI (selectivity index) PC-3 (PC-3 (prostate cancer))	IC50 (HT-29 (colon cancer)) [µg/mL]	antiproliferative/cytotoxic activity against HT-29 (in words) (HT-29 (colon cancer))	SI (selectivity index) HT-29 (HT-29 (colon cancer))	IC50 Ca Ski (Ca Ski) [µg/mL]	IC50 MCF-7 (MCF-7) [µg/mL]	IC50 (Ca Ski (cervical cancer)) [µg/mL]	antiproliferative/cytotoxic activity against Ca Ski (in words) (Ca Ski (cervical cancer); MTT assay)	SI (selectivity index) Ca Ski (Ca Ski (cervical cancer))	antiproliferative/cytotoxic activity against MCF-7 (in words) (MCF-7 (breast cancer); MTT assay)
C=C1CC[C@H]2C(C)(C)CCC[C@]2(C)[C@H]1CC=C(C=O)CC(=O)O (stereo in doubt) [Compound 16, zerumin A]	25.8 ± 1.9 (≈ 81 µM)	22.3 ± 1.1 (≈ 70 µM)	1.2	21.9 ± 1.6 (≈ 68.8 µM)	moderate inhibitory activity	1.2	17.4 ± 2 (≈ 54.6 µM)	moderate inhibitory activity	1.5	8.7 ± 0.29 (≈ 27.3 µM)	14.2 ± 0.06 (≈ 44.6 µM)	–	–	–	–
C=C1CC[C@H]2C(C)(C)CCC[C@]2(C)[C@H]1C/C=C(/C=O)CC=O [Compound 1, labda-8(17),12 diene-15,16 dial]	45.3 ± 1.9 (≈ 150 µM)	16.3 ± 0.2 (≈ 53.9 µM)	2.8	26.3 ± 2.4 (≈ 87 µM)	moderate inhibitory activity	1.7	21.5 ± 3.1 (≈ 71.1 µM)	moderate inhibitory activity	2.1	–	–	14.5 ± 0.1 (≈ 47.9 µM)	moderate cytotoxicity	3.1	moderate cytotoxicity
CC(C)=C1CC(=O)[C@@H](C)CC/C=C(\C)CC1=O [Compound 2, dehydrocurdione]	24 ± 2.1 (≈ 102 µM)	33 ± 1.1 (≈ 141 µM)	0.7	19.1 ± 2.8 (≈ 81.5 µM)	moderate inhibitory activity	1.3	22.7 ± 2.4 (≈ 96.9 µM)	moderate inhibitory activity	1.1	–	–	21.7 ± 1.1 (≈ 92.6 µM)	–	1.1	–
CC1=CC2C(=C(C)C)C(=O)C=C(C)C2CC1 (centres unmarked) [Compound 4, comosone II]	–	> 100	–	–	–	–	–	–	–	–	–	76 ± 1.2 (≈ 351 µM)	–	–	–
CC1=CC(=O)C(=C(C)C)C[C@H]2[C@H]1CC[C@]2(C)O [Compound 6, procurcumenol]	16.3 ± 1 (≈ 69.6 µM)	16.1 ± 2.2 (≈ 68.7 µM)	1.0	13.3 ± 1.7 (≈ 56.8 µM)	good cytotoxic effect	1.2	15.5 ± 2.3 (≈ 66.1 µM)	good cytotoxic effect	1.1	–	–	62.4 ± 0.3 (≈ 266 µM)	–	0.3	–
CC(C)=C1C/C=C(\C)CC/C=C(\C)CC1=O [Compound 7, germacrone]	73.7 ± 0.3 (≈ 338 µM)	59.1 ± 2.9 (≈ 271 µM)	1.2	55.2 ± 4.9 (≈ 253 µM)	–	1.3	42.9 ± 4.1 (≈ 196 µM)	–	1.7	–	–	39.3 ± 1.2 (≈ 180 µM)	–	1.9	–
CC1=CCCC2(C)OC2C(=O)c2c(C)coc2C1 (centres unmarked) [Compound 9, zederone]	42.1 ± 2.7 (≈ 171 µM)	> 100	0.4	27 ± 1.9 (≈ 110 µM)	moderate inhibitory activity	1.6	19.1 ± 2.5 (≈ 77.5 µM)	moderate inhibitory activity	2.2	–	–	> 100	–	0.4	–
CC1=CC2(O)OC3(CC2=C(C)C)C(C)CCC13 (centres unmarked) [Compound 10, 9-isopropylidene-2,6-dimethyl-11-oxatricyclo[6.2.1.0^1,5]undec-6-en-8-ol]	71.7 ± 6.1 (≈ 306 µM)	> 100	< 0.7	–	–	–	–	–	–	–	–	> 100	–	< 0.7	–
C/C1=C\Cc2c(C)coc2C/C(C)=C/CC1 [Compound 11, furanodiene]	40.9 ± 2.6 (≈ 189 µM)	36.5 ± 2.6 (≈ 169 µM)	1.1	39.5 ± 4.5 (≈ 183 µM)	–	1.0	47.2 ± 4.4 (≈ 218 µM)	–	0.9	–	–	–	–	–	–

— paper PMC4121215, “Cytotoxic Constituents from the Rhizomes of Curcuma zedoaria” (The Scientific World Journal, 2014)
